≈ marks a conversion by molar mass, not a printed value. Entries after “also recorded” stand apart in the source; their conditions may differ. Like-named read-outs stand apart in the source and are kept apart here.
Columns and labels:
[1] = Mouse liver microsome stability assay; type: in vitro ADME
Procedure: Mouse Liver Microsome Stability Assay. A mixture of PBS (pH 7.4), NADPH regenerating system solution A (Corning Life Sciences), and NADPH regenerating system solution B (Corning Life Sciences) was incubated at 37° C. in a shaking incubator for 5 min. Next, compound was added in DMSO (final concentration 50 μM, 0.5% DMSO) before ice-cold mouse liver microsomes (Thermo Fisher, male CD-1 mice, pooled) were added (final protein concentration of 1 mg/mL). An aliquot was immediately removed, quenched with an equal volume of 100 μM internal standard and centrifuged at 13,000 rcf for 3 min. The reactions were incubated at 37° C. in a shaking incubator for 3 h. A second aliquot was removed and quenched. Samples were analyzed with the 5500 QTRAP LC/MS/MS system (Sciex, Framingham, MA) in Metabolomics Lab of Roy J. Carver Biotechnology Center, University of Illinois at Urbana-Champaign. Software Analyst 1.6.2 was used for data acquisition and analysis. The 1200 series HPLC system (Agilent Technologies, Santa Clara, CA) includes a degasser, an autosampler, and a binary pump. The LC separation was performed on an Agilent Sb-Aq column (4.6×50 mm, […]) with mobile phase A (0.1% formic acid in water) and mobile phase B (0.1% formic acid in acetonitrile). The flow rate was 0.3 mL/min. The linear gradient was as follows: 0-3 min, 100% A; 10-16 min, 5% A; 16.5-22 min, 100% A. The autosampler was set at 10° C. The injection volume was 1 μL. Mass spectra were acquired under both positive (ion spray voltage was +5500 V) and negative (ion spray voltage was −4500 V) electrospray ionization (ESI). The source temperature was 450° C. The curtain gas, ion source gas 1, and ion source gas 2 were 33, 65, and 60 psi, respectively. Multiple reaction monitoring (MRM) was used for quantitation.

[2] = system: S. aureus ATCC 29213; test: MIC by micro-dilution broth method (CLSI); type: cell-based; details: for MIC: Staphylococcus aureus
[3] = system: S. aureus resistant mutants with EF-G (fusA) mutations; test: microbe, parasite or virus in culture; type: cell-based; details: for MIC: Staphylococcus aureus
Procedure: (§1) Antimicrobial Susceptibility Tests. Susceptibility testing was performed in biological triplicate, using the micro-dilution broth method as outlined by the Clinical and Laboratory Standards Institute. Bacteria were cultured with cation-adjusted Muller-Hinton broth (Sigma-Aldrich, Cat #90922) in round-bottom 96-well plates (Corning, Cat #3788). Human serum (Ultrafiltrate, unspecified gender, 30K Dalton membrane filtered) was purchased from BioIVT (Hicksville, NY).
(§2) Selection of Resistant Mutants. Resistant mutants were selected via the large inoculum method. Briefly, S. aureus ATCC 29213 (1×10^9 CFU) were plated on 100 mm plates of LB agar containing 4, 2, 1, 0.5, and 0.25 μg/mL.
(§3) Sequencing of fusA. FusA was amplified by colony PCR. Colonies were picked and diluted in 100 μL sterile H2O. PCR reactions are setup by combining MiFi Mix (Bioline, London, UK), 20 μM primer mix [fusA-F2, fusA_seq1, Forward EF-G2, and Reverse EF-G](S. aureus ATCC 29213), template DNA, and H2O. Reactions were performed on C1000 Thermal Cycler (Bio-Rad, Hercules, CA) with the following conditions: 5 minutes denaturation at 95° C., followed by 30 cycles of 20 seconds at 95° C., 20 seconds at 50° C., and either 1 minute (fusA1) or 1.5 minutes (fusA2) at 72° C. A 10 μL portion of the PCR reaction mixture was analyzed by agarose gel to confirm the product. PCR reactions were purified using GeneJET PCR Purification Kit (Thermo Scientific). PCR amplicons were submitted to the Core DNA Sequencing Facility at the University of Illinois at Urbana-Champaign for Sanger sequencing with the following primers to sequence the fusA [fusA2, fusA_seq1, Forward EF-G2, Forward EF-G3, Forward EF-G4]

[4] = system: E. faecium ATCC 19434; test: MIC against sensitive E. faecium strain; type: cell-based; details: Enterococcus faecium, ATCC19434; sensitive strain E. faecium ATCC 19434
[5] = system: S. aureus ATCC BAA-1721; test: MIC against strain possessing the fusC gene; type: cell-based; details: Staphylococcus aureus, ATCCBAA1721
[6] = system: clinical isolates of S. aureus; details: cited from earlier work
[7] = system: S. aureus (FA-32×-B); test: Neutropenic thigh infection burden study, FA-resistant strain; type: in vivo; details: neutropenic CD-1 mice, FA-resistant strain (P406L), 50 mg/kg IP at 1, 2, 3 h, burden at 8 h
[8] = system: FA-Resistant strains of S. aureus; test: MIC against 11 FA-resistant strains generated at 4x-32x the MIC; type: cell-based
Procedure: as §1, §2, §3

[9] = system: S. aureus ATCC 29213; test: Resistance frequency, large inoculum method; type: cell-based
Procedure: as §2

[10] = system: S. aureus 29213; test: MIC shift with 50% human serum; type: cell-based; details: S. aureus 29213, 50% human serum vs none
Procedure: as §1, with “Bacteria were cultured with cation-adjusted Muller-Hinton broth (Sigma-Aldrich, Cat #90922) in round-bottom 96-well plates (Corning, Cat #3788).” left out

[11] = Staphylococcus aureus, strain FA-4X-A, EF-G T385N
[12] = Staphylococcus aureus, strain FA-4X-B, EF-G T385N
[13] = Staphylococcus aureus, strain FA-8X-A, EF-G T385N
[14] = Staphylococcus aureus, strain FA-8X-B, EF-G R464L
[15] = Staphylococcus aureus, strain FA-16X-A, EF-G H457Y
[16] = Staphylococcus aureus, strain FA-32X-B, EF-G P406L
[17] = Staphylococcus aureus, strain FA-32X-D, EF-G T436I

CC(=O)O[C@H]1C[C@@]2(C)[C@@H](C[C@@H](O)[C@H]3[C@@]4(C)CC[C@@H](O)[C@@H](C)[C@@H]4CC[C@@]32C)/C1=C(\CCC=C(C)C)C(=O)O [FA, Fusidic acid]
Metabolic Stability in Mouse Liver Microsomes (percent remaining) ([1]; male, CD-1, mouse, microsomes, 3 h, 50 μM, pH 7.4): 82 ± 0.8%^ | MIC ([2]; ATCC29213, WT S. aureus ATCC 29213, n = 3, read-out: MIC Without Human Serum): 0.125 µg/mL (≈ 0.242 µM) | MIC ([3]; read-out: MIC for FA, strain FA-32X-1, EF-G H457Y): 128 µg/mL (≈ 248 µM) | MIC ([3]; read-out: MIC for FA, strain FA-32X-2, EF-G T436I): 8 µg/mL (≈ 15.5 µM) | MIC ([3]; read-out: MIC for FA, strain FA-32X-3, EF-G H457Y): 128 µg/mL (≈ 248 µM) | MIC ([3]; read-out: MIC for FA, strain FA-32X-6, EF-G T436I): 16 µg/mL (≈ 31 µM) | MIC ([3]; read-out: MIC for FA, strain FA-32X-7, EF-G H457Y): 128 µg/mL (≈ 248 µM) | MIC ([3]; read-out: MIC for FA, strain FA-32X-8, EF-G H457Y): 128 µg/mL (≈ 248 µM) | MIC ([3]; read-out: MIC for FA, strain FA-32X-10, EF-G H457Y): 128 µg/mL (≈ 248 µM) | MIC ([3]; read-out: MIC for FA, strain FA-32X-12, EF-G H457Y): 128 µg/mL (≈ 248 µM) | MIC ([3]; read-out: MIC for FA, strain FA-32X-13, EF-G H457Y): 128 µg/mL (≈ 248 µM) | MIC ([3]; read-out: MIC for FA, strain FA-32X-14, EF-G H457Y): 128 µg/mL (≈ 248 µM) | MIC ([3]; read-out: MIC for FA, strain FA-32X-15, EF-G H457Y): 128 µg/mL (≈ 248 µM) | MIC ([3]; read-out: MIC for FA, strain FA-32X-19, EF-G H457Y): 128 µg/mL (≈ 248 µM) | MIC ([3]; read-out: MIC for FA, strain FA-32X-20, EF-G H457Y): 128 µg/mL (≈ 248 µM) | MIC [4]: 2 µg/mL (≈ 3.87 µM) | MIC [5]: 8 µg/mL (≈ 15.5 µM) | S. aureus strains susceptible ([6]; United States, analysis conducted in 2011): 99.7% | MIC range ([6]; staphylococcal clinical isolates that carry the fusC gene): 2 to 64 µg/mL | MIC range ([6]; strains that possess the fusB gene): 4 to 1024 µg/mL | Bacterial burden in thigh [7]: no efficacy | MIC [8, 11]: 8 µg/mL (≈ 15.5 µM) | MIC [8, 12]: 8 µg/mL (≈ 15.5 µM) | MIC [8, 13]: 8 µg/mL (≈ 15.5 µM) | MIC [8, 14]: 16 µg/mL (≈ 31 µM) | MIC [8, 15]: 128 µg/mL (≈ 248 µM) | MIC [8, 16]: 32 µg/mL (≈ 61.9 µM) | MIC [8, 17]: 8 µg/mL (≈ 15.5 µM) | MIC ([8]; strain FA-32×-B): 32 µg/mL (≈ 61.9 µM)

CC(=O)O[C@H]1C[C@@]2(C)[C@@H](C[C@@H](O)[C@H]3[C@@]4(C)CC[C@@H](O)[C@@H](C)[C@@H]4CC[C@@]32C)/C1=C(\CCC=C1CCCC1)C(=O)O [FA-CP, (Z)-2-((3R,4S,5S,8S,9S,10S,11R,13R,14S,16S)-16-acetoxy-3,11-dihydroxy-4,8,10,14-tetramethylhexadecahydro-17H-cyclopenta[a]phenanthren-17-ylidene)-5-cyclopentylidenepentanoic acid]
Metabolic Stability in Mouse Liver Microsomes (percent remaining) ([1]; 3 h at 37° C., LC-MS/MS, ± SEM of 3 biological replicates): 78 ± 4% | Antibacterial activity relative to FA ([2]; S. aureus ATCC 29213 MIC): equipotent activity to FA | MIC ([2]; ATCC29213, read-out: MIC Without Human Serum): 0.125 µg/mL (≈ 0.23 µM) | Resistance frequency relative to FA ([9]; at 2× and 32× the MIC): modest improvement in resistance frequency | Resistance frequency relative to FA ([9]; head-to-head with FA, 2×-32× the MIC): improvement in resistance frequency relative to FA | MIC ([3]; read-out: MIC for FA-CP, strain FA-CP-32X-1, EF-G H457Y): 32 µg/mL (≈ 59 µM) | MIC ([3]; read-out: MIC for FA-CP, strain FA-CP-32X-2, EF-G H457Y): 64 µg/mL (≈ 118 µM) | MIC ([3]; read-out: MIC for FA-CP, strain FA-CP-32X-3, EF-G H457Y): 64 µg/mL (≈ 118 µM) | MIC ([3]; read-out: MIC for FA-CP, strain FA-CP-32X-4, EF-G H457Y): 32 µg/mL (≈ 59 µM) | MIC ([3]; read-out: MIC for FA-CP, strain FA-CP-32X-5, EF-G H457Y): 64 µg/mL (≈ 118 µM) | MIC ([3]; read-out: MIC for FA-CP, strain FA-CP-32X-6, EF-G H457Y): 64 µg/mL (≈ 118 µM) | MIC ([3]; read-out: MIC for FA-CP, strain FA-CP-32X-7, EF-G H457Y): 64 µg/mL (≈ 118 µM) | MIC ([3]; read-out: MIC for FA-CP, strain FA-CP-32X-8, EF-G H457Y): 64 µg/mL (≈ 118 µM) | MIC ([3]; read-out: MIC for FA-CP, strain FA-CP-32X-9, EF-G H457Y): 32 µg/mL (≈ 59 µM) | MIC ([3]; read-out: MIC for FA-CP, strain FA-CP-32X-10, EF-G D434N): 32 µg/mL (≈ 59 µM) | MIC ([3]; read-out: MIC for FA-CP, strain FA-CP-32X-11, EF-G H457Y): 32 µg/mL (≈ 59 µM) | MIC ([3]; read-out: MIC for FA-CP, strain FA-CP-32X-12, EF-G D434N): 32 µg/mL (≈ 59 µM) | MIC ([3]; read-out: MIC for FA-CP, strain FA-CP-32X-13, EF-G H457Y): 64 µg/mL (≈ 118 µM) | MIC ([3]; read-out: MIC for FA-CP, strain FA-CP-32X-14, EF-G H457Y): 32 µg/mL (≈ 59 µM) | MIC ([3]; read-out: MIC for FA-CP, strain FA-CP-32X-15, EF-G H457Y): 64 µg/mL (≈ 118 µM) | MIC ([3]; read-out: MIC for FA-CP, strain FA-CP-32X-16, EF-G F88L): 64 µg/mL (≈ 118 µM) | MIC ([3]; read-out: MIC for FA-CP, strain FA-CP-32X-17, EF-G F88L): 64 µg/mL (≈ 118 µM) | MIC ([3]; read-out: MIC for FA-CP, strain FA-CP-32X-18, EF-G H457Y): 64 µg/mL (≈ 118 µM) | MIC ([3]; read-out: MIC for FA-CP, strain FA-CP-32X-19, EF-G H457Y): 32 µg/mL (≈ 59 µM) | MIC ([3]; read-out: MIC for FA-CP, strain FA-CP-32X-20, EF-G H457Y): 32 µg/mL (≈ 59 µM) | Fold increase from WT S. aureus of highest MIC ([3]; colonies generated from the same compound at 32× the MIC): 512 | MIC [4]: 2 µg/mL (≈ 3.68 µM) | Fold Change Increase in MIC with 50% Human Serum [10]: 8X | MIC [5]: 8 µg/mL (≈ 14.7 µM) | Bacterial burden in thigh [7]: reductions in bacterial burden; also recorded: in vivo efficacy | MIC [8, 11]: 2 µg/mL (≈ 3.68 µM) | MIC [8, 12]: 2 µg/mL (≈ 3.68 µM) | MIC [8, 13]: 2 µg/mL (≈ 3.68 µM) | MIC [8, 14]: 8 µg/mL (≈ 14.7 µM) | MIC [8, 15]: 64 µg/mL (≈ 118 µM) | MIC ([8]; Staphylococcus aureus, strain FA-32X-A, EF-G F88L): 128 µg/mL (≈ 236 µM) | MIC [8, 16]: 4 µg/mL (≈ 7.37 µM) | MIC ([8]; Staphylococcus aureus, strain FA-32X-C, EF-G H457L): 128 µg/mL (≈ 236 µM) | MIC [8, 17]: 2 µg/mL (≈ 3.68 µM) | MIC ([8]; Staphylococcus aureus, strain FA-32X-E, EF-G H457N): 128 µg/mL (≈ 236 µM) | MIC ([8]; Staphylococcus aureus, strain FA-32X-F, EF-G D434N): 32 µg/mL (≈ 59 µM) | Fold improvement in activity against FA-resistant strains relative to FA ([8]; eleven FA-resistant S. aureus strains): 2-8 fold
